Reference: patent publication US12527801B2, “Cell activator of animal cell” (Vitamin C60 BioResearch Corporation, priority 2019, dated 2026)

Test system: Normal human epidermal keratinocytes
Assay: Action of activating epidermal cells (MTT reduction)
Assay type: cell-based
Details: for Index (%) Mean ± S.D.: 48 h, untreated cells = 100
Method: Normal human epidermal keratinocytes were seeded on 96-well plates at the density of 5.0×10^3 cells/well using a HuMedia KG2 medium (KG2). 24 hours after seeding, the above-mentioned medium was replaced with a HuMedia KB2 medium (KB2) comprising the test sample. AOH and AHX (2-azahypoxanthine) were used as test samples, KG2 as a positive control (P. C.) for the cell activating action was treated instead of the test sample, and cells which were not treated with the samples were used as a negative control. After culturing for 48 hours, the above-mentioned medium was replaced with KB2 comprising 0.2 mg/mL of MTT to perform culturing for 1 hour. After removing the medium, the absorbance at 550 nm and 650 nm of the cell lysate in which 2-propanol was added to lyse the cells was measured. The amount of MTT reduced to blue formazan was obtained by subtracting the absorbance at 650 nm, which was derived from the cell turbidity, from the absorbance at 550 nm. The action of activating epidermal keratinocytes was shown as Index (%), which is a percentage of the absorbance of the cells, which was treated with the test samples, to the absorbance of the cells, which was not treated with the samples (negative control), with the amount of MTT reduced as an index.

With O=c1[nH]nnc2[nH]cnc12 [AHX, 7H-imidazo[4,5-d][1,2,3]triazin-4(3H)-one, reference compound] the “Index (%) Mean ± S.D.” value (3.9 μg/mL) was 100.6 ± 3%, the “Index (%) Mean ± S.D.” value (7.8 μg/mL) was 96.1 ± 2.7% and the “Index (%) Mean ± S.D.” value (15.6 μg/mL) was 94 ± 5.9%. For the same molecule, the “Index (%) Mean ± S.D.” value (31.3 μg/mL) was 87.1 ± 4.5%, the “Index (%) Mean ± S.D.” value (62.5 μg/mL) was 80.2 ± 1.8% and the “Index (%) Mean ± S.D.” value (125 μg/mL) was 77.4 ± 2^ %. The “Index (%) Mean ± S.D.” value (250 μg/mL) was 78.4 ± 1.8%, the “Index (%) Mean ± S.D.” value (500 μg/mL) was 74.2 ± 1.9% and the “change in Index” value (concentration of 31.3 μg/mL or more) was “significantly reduced”. The “proliferative effect / cell activating action” value (epidermal keratinocytes) was “did not have a proliferative effect”.
